Source: patent US20240390379A1, “EZH2 Inhibition in Pancreatic Cancer” (University of Massachusetts, priority 2021, published 2024)

Test system: KPC1 PDAC cells
Assay: qRT-PCR of senescence and SASP gene expression in KPC1 PDAC cells with EZH2 methyltransferase inhibitors
Assay type: cell-based, mouse
Conditions: GSK126 1 μM or tazemetostat 5 μM with trametinib 25 nM and palbociclib 500 nM, 8 days
Protocol: P values in b-c were calculated using two-tailed, unpaired Student's t-test.
Trametinib (S2673), palbociclib (S1116), and GSK126 (S7061) were purchased from Selleck chemicals for in vitro studies. Drugs for in vitro studies were dissolved in DMSO (vehicle) to yield 10 mM stock solutions and stored at −80° C. For in vitro studies, growth media with or without drugs was changed every 2-3 days.
Total RNA was isolated using the RNeasy Mini Kit (Qiagen), and complementary DNA (cDNA) was obtained using the TaqMan reverse transcription reagents (Applied Biosystems).
Flow cytometry was performed on a BD LSR II, and data were analyzed using FlowJo (TreeStar).

CC[C@H](C)n1cc(C)c2c(C(=O)NCc3c(C)cc(C)[nH]c3=O)cc(-c3ccc(N4CCNCC4)nc3)cc21 [GSK126]
Pro-inflammatory SASP factors and immunomodulatory cell surface proteins: induced pro-inflammatory SASP factors and immunomodulatory cell surface proteins | Senescence-associated cell cycle arrest: without impacting senescence-associated cell cycle arrest
